Assay results taken from patent publication US6399633B1, “Use of 4-H-1-benzopryan-4-one derivatives as inhibitors of smooth muscle cell proliferation” (priority 1999, dated 2002).
Entries after “also recorded” stand apart in the source; their conditions may differ. Where two headings read alike, the source gives them in different places.

Assays:
[1] = tested on: neointimal formation; conditions: instilled into the carotid artery at the time of injury; cited from earlier work
[2] = tested on: Erk1 (p44 MAP kinase) and Erk2 (p42 MAP kinase); test: Western blot of phosphorylated Erk1/Erk2 in HASMC; format: cell-based, human; conditions: growth factors 30 min
Protocol: (§1) Western blot analysis—Quiescent HASMC were treated in the presence or absence of growth factors and/or flavopiridol as indicated. Western blot analysis was performed as previously described^18. The primary antibodies were: a polyclonal anti-human cyclin D1 antibody (M-20, Santa Cruz), a monoclonal anti-human proliferating cell nuclear antigen (PCNA) antibody (PC10, Sigma), a phosphorylation-specific p44/42 (Erk1/Erk2) MAP kinase monoclonal antibody (New England Biolabs), and a monoclonal anti-Rb antibody (G3-245, Pharmigen), which recognizes the phosphorylated (pRb) and highly phosphorylated (ppRb) Rb species. For immunoblotting studies, experiments were repeated at least three times.

[3] = tested on: Erk1 (p44 MAP kinase) and Erk2 (p42 MAP kinase); test: In-gel kinase assay (myelin basic protein) in HASMC; format: cell-based, human; conditions: growth factors 30 min
Protocol: In-gel kinase assay—Quiescent HASMC were treated with growth factors for 30 min and total cell lysates were prepared as described for Western blotting. In some experiments, HASMC were pretreated for 60 min with 30 μmol/L PD98059, flavopiridol, or vehicle. Equal amounts of proteins (50 μg/lane) were resolved on a polyacrylamide gel that was copolymerized with 350 μg/ml myelin basic protein. The gel was treated with [γ-^32P]ATP and autoradiography was performed as described^19.

[4] = tested on: Human aortic smooth muscle cells (HASMC); test: Cell proliferation ELISA (BrdU incorporation); format: cell-based; conditions: flavopiridol 75 nmol/L; bFGF- and thrombin-induced
Protocol: Cell culture—Human aortic smooth muscle cells (HASMC) were obtained from Clonetics and were cultured as previously described^18. Cells were used at passages 5-9. Prior to performing experiments, cells were growth-arrested at 80% confluence for 48 h with medium containing 0.2% fetal bovine serum. Cell proliferation ELISA—Cell proliferation was measured by ELISA (Amersham Life Science). HASMC were grown in gelatin-coated 96-well plates and made quiescent. Cells were treated with 10 ng/ml bFGF, 2 U/ml thrombin, or vehicle for 24 h. Flavopiridol (75 nmol/L) was administered 1 h prior to growth factor treatment. 5-Bromo-2′-deoxyuridine (BrdU) was added to a final concentration of 10 μmol/L during the last 2 h of treatment. BrdU incorporation was measured as described^19. Results are expressed as mean±SEM for 12 samples per condition from two independent experiments.

[5] = tested on: Human aortic smooth muscle cells (HASMC); test: Cell counts of growth-arrested HASMC; format: cell-based; conditions: bFGF 10 ng/ml, flavopiridol 75 nmol/L, three days; bFGF alone 3-fold increase
Protocol: Cell culture—Human aortic smooth muscle cells (HASMC) were obtained from Clonetics and were cultured as previously described^18. Cells were used at passages 5-9. Prior to performing experiments, cells were growth-arrested at 80% confluence for 48 h with medium containing 0.2% fetal bovine serum. Cell counts—Growth-arrested HASMC grown to 50% confluence in 6-well plates were treated with or without flavopiridol (75 nmol/L) or bFGF (10 ng/ml). At intervals after treatment, cells were trypsinized and cell numbers determined using a hemocytometer.

[6] = tested on: Cdc2 and Cdk2; test: Cdk activity (histone H1 kinase assay) in HASMC lysates; format: cell-based, human; conditions: flavopiridol 75 nmol/L pretreatment, 24 h
Protocol: Cdk activity—Quiescent HASMC were treated with agonists and inhibitors for 24 h and total cell lysates were prepared as described for Western blotting. The kinase assay was performed with a histone H1 kinase assay kit (Upstate Biotechnology) following the manufacturer's instructions. In brief, 10 μl of peptide inhibitors for protein kinase C (2 μmol/L) and protein kinase A (2 μmol/L), 100 μg cell lysate, 10 μl assay buffer and 10 μl of a mixture containing 75 μmol/L magnesium chloride, 500 μmol/L ATP and 1 μCi/ml [γ-^32P]ATP were mixed in a microcentrifuge tube. After incubation at 30° C. for 10 min, aliquots were pipetted onto phosphocellulose papers. The papers were washed in 0.75% phosphoric acid, followed by measurement of cpm in a scintillation counter (Beckman). Results are expressed as the mean±SEM for three samples and are representative of three independent experiments.

[7] = tested on: cyclin D1; test: Western blot of cyclin D1 in HASMC; format: cell-based, human; conditions: flavopiridol 75 nmol/L pretreatment, 24 h
Protocol: as §1

[8] = tested on: PCNA; test: Western blot of PCNA in HASMC; format: cell-based, human; conditions: flavopiridol 75 nmol/L pretreatment, 24 h
Protocol: as §1

[9] = tested on: Rb; test: Western blot of Rb phosphorylation in HASMC; format: cell-based, human; conditions: flavopiridol 75 nmol/L, 24 h
Protocol: as §1

[10] = tested on: Human aortic smooth muscle cells (HASMC); test: Trypan-blue exclusion viability; format: cell-based; conditions: flavopiridol 75 nmol/L, quiescent HASMC
Protocol: Trypan-blue exclusion—HASMC were grown in 5-cm dishes at low confluence and growth-arrested as described. Cells were treated with flavopiridol (75 nmol/L) or tumor necrosis factor-[…] (TNF-[…]; 50 ng/ml) for the indicated times. Following the removal of the medium, 0.4% trypan blue in phosphate-buffered saline was added to the dishes. After 5 min, the cells in the dishes were counted under the microscope. Blue cells were counted as nonviable cells.

[11] = tested on: rat carotid artery neointimal formation; conditions: for PCNA-positive nuclei in the neointima: 5 mg/kg orally
Protocol: Rat carotid injury model—Injury to the rat carotid artery was performed essentially as described^2. Adult male Sprague-Dawley rats (400-500 g, Zivic-Miller) were anesthetized with an intraperitoneal injection of ketamine ([…]) and xylazine (4 mg/kg). The left internal carotid was then cannulated with a 2F embolectomy catheter. The balloon was inflated with saline and withdrawn across the artery three times to produce a distending and denuding injury. The right carotid artery was uninjured and served as a control of injury for each animal. Immediately following recovery from anesthesia and for four additional days thereafter, rats were administered flavopiridol (5 mg/kg in water) or water by gavage in a blinded manner. […] At specified time points after carotid injury, rats were anesthetized as above and perfusion-fixed systemically with 4% paraformaldehyde in phosphate-buffered saline. Right and left carotid arteries were removed and distended by injection of 4% paraformaldehyde through the lumen, after which they were dehydrated and stored in 70% ethanol at 4° C. Immunohistochemistry was performed as previously described^18, using the monoclonal PCNA antibody and a polyclonal anti-human Cdk2 antibody (M2-G, Santa Cruz).
Image analysis—The extreme distal and proximal regions of each artery (approx. 500 μm) were removed. Ten intermediate cross-sections (8 μm each) taken 500 μm apart were analyzed from each artery. Slides were fixed and stained with hematoxylin and eosin as previously described^18. Using a Nikon Diaphot 300 microscope and a 4× objective, each cross-section was captured as a digital image using a Hamamatsu C5985 video camera and TCPro 2.41 (Coreco, Inc.). Medial and neointimal areas were determined using NIH Image software. Medial and neointimal boundaries were determined by one slide reviewer (A.M.) and verified in a blinded fashion by a second reviewer (C.P.). Lesion size was expressed as the neointima/media ratio. Results for each group were expressed as the mean±SEM.

[12] = doses below the toxic threshold, Phase I human studies; cited from earlier work
[13] = in vivo; cited from earlier work

With `COc1ccc(CNc2nc(N(CCO)CCO)nc3c2ncn3C(C)C)cc1` [CVT-313] as the compound, how does the neointimal formation [1] read?
The neointimal formation was “can also inhibit neointimal formation”.

With `COc1cccc(-c2cc(=O)c3ccccc3o2)c1N` [PD98059, reference compound] as the compound, how does the “thrombin- and bFGF-induced phosphorylation of Erk1 and Erk2” value ([2]; PD98059 30 μmol/L) read?
Its value is “blocked”.

What about the “thrombin- and bFGF-induced Erk1 and Erk2 activity (in-gel kinase)” value ([3]; PD98059 30 μmol/L pretreatment 60 min) of the same compound?
The value was “inhibitable”.

With `CN1CC[C@H](c2c(O)cc(O)c3c(=O)cc(-c4ccccc4Cl)oc23)[C@H](O)C1` [flavopiridol, (−)-cis, -5,7-dihydroxy-2-(2-chlorophenyl)-8-[4-(3-hydroxy-1-methyl)piperidinyl]-4H-benzopyran-4-one] as the compound, how does the “inhibition of SMC proliferation” value [4] read?
The value was “near complete inhibition”.

What about the “bFGF-induced increase in cell number” value [5] of the same compound?
Its value is “efficiently blocked”.

And the “bFGF- and thrombin-induced increases in histone H1 kinase (cyclin-dependent kinase) activity” value [6]?
The value was “totally blocked; also recorded: inhibited”.

And the “bFGF- and thrombin-induced upregulation of cyclin D1 protein” value [7]?
The value was “completely blocked”.

And the “growth factor-induced increased expression of PCNA” value [8]?
Its value is “blocked”.

And the “thrombin- and bFGF-induced hyperphosphorylation of Rb” value [9]?
Its value is “inhibited; also recorded: blocked”.

What about the “thrombin- and bFGF-induced phosphorylation of Erk1 and Erk2” value ([2]; flavopiridol 75 nmol/L) of the same compound?
Its value is “no effect”.

And the “thrombin- and bFGF-induced Erk1 and Erk2 activity (in-gel kinase)” value ([3]; flavopiridol 75 nmol/L)?
Its value is “no effect”.

What about the “HASMC viability (trypan blue exclusion)” value [10] of the same compound?
Its value is “does not decrease HASMC viability”.

What about the “HASMC viability (trypan blue exclusion)” value ([10]; listed as Flavopiridol) of the same compound?
Its value is “no effect”.

And the “Cdk2-positive cells in the neointima vs untreated rats” value ([11]; 7 and 14 days after injury, 5 mg/kg by gavage)?
The value was “much less common”.

What about the “reduction of neointimal area” value ([11]; 7 days after injury, 5 mg/kg by gavage) of the same compound?
The value was 35%.

And the “PCNA-positive nuclei in the neointima” value ([11]; 7 days after injury, untreated 31.1±7.2%)?
The value was 11.8±1.5%.

And the “reduction of neointimal area” value ([11]; 14 days after injury, 5 mg/kg by gavage)?
The value was 39%.

And the “PCNA-positive nuclei in the neointima” value ([11]; 14 days after injury)?
The value was 10.4±2.0%.

And the “signs of toxicity related to drug administration” value ([11]; rat, in vivo, 5 mg/kg)?
The value was “no overt signs of toxicity”.

What about the median serum concentrations [12] of the same compound?
The median serum concentrations was 425 nmol/L.

And the biological half-life [13]?
Its biological half-life is 2.5 hrs.
